# In patent publication US20230292780A1, “LISTERIA INHIBITION BY MANGANESE DEPLETION” (Chr. Hansen A/S, priority 2020, published 2023):
# Where two headings read alike, the source gives them in different places.
# Assays:
# [1] = test system: L. lactis subsp. cremoris MG1363; conditions: same CDM
# Method: (§1) All the components were dissolved in 700 mL Milli-Q water to minimize traces of manganese, and the pH was set to 6.8 with KOH, after which the volume was adjusted to 1 L and filter-sterilized.
# (§2) The following strains were tested: • 1. L. monocytogenes 1: DSM 15675 (obtainable from DSMZ) • 2. L. monocytogenes 2: mhl210 (obtainable from the Copenhagen University from Department of Veterinary and Animal Sciences, Section for Food Safety and Zoonoses) • 3. L. monocytogenes 3: ATCC 13932 (obtainable from ATCC) • 4. L. innocua BL 86/26 • 5. L. lactis subsp. cremoris MG1363 (MoBiTec GmbH, Germany)
# (§3) L. innocua BL 86/26 and L. lactis MG1363 were pre-grown from -80° C. glycerol stocks in M17 broth with 1% (w/v) glucose. The three L. monocytogenes were pre-grown from −80° C. glycerol stocks in BHI. All cultures were incubated overnight as standing cultures at 30° C., resulting in stationary phase cultures. The next day, 1 mL of each culture was washed twice with and resuspended in manganese-deficient CDM to remove residual manganese. 1 μL of each washed culture was then used to inoculate, in triplicate, a well of a 96-wells plate containing 200 μL CDM supplemented with 1% glucose diluted from a 50% (w/v) stock solution dissolved in demineralized water, in which manganese was left out, or added to a final concentration of 0.00006, 0.0006, 0.006, 0.06 or 0.6 mg L^−1 manganese. Growth was followed by monitoring the absorbance at 600 nm at 30° C. in a Synergi H1 reader (BioTek, Winooski, VT, USA). This experiment was repeated twice on separate days to check reproducibility.
# [2] = test system: four Listeria spp. strains (L. monocytogenes DSM 15675, mhl210, ATCC 13932; L. innocua BL 86/26); conditions: for growth (absorbance at 600 nm): 30° C.
# Method: as §1, §2, §3
# L. innocua BL 86/26 = conditions: CDM, 30° C.
# Method: (§4) CDM for growth of Lactococcus lactis and Listeria innocua was prepared as described in Example 1. As to Streptococcus thermophilus, a second Mn-free CDM supporting it growth was prepared essentially as described by Otto et al. (“The relation between growth rate and electrochemical proton gradient of Streptococcus cremoris.” FEMS Microbiology Letters 16.1 (1983): 69-74) with the following exceptions: All metals were used in the same final concentrations as listed in Table 4, and all amino acids were added to a final concentration of 0.08 g/L except for cysteine, which consisted of a final concentration of 0.5 g/L. Wolfe's vitamin solution was used in which DL-Ca-pantothenate was increased to have a final concentration of 400 mg/L, and urea and NaHCO3 were added to a final concentration of 0.12 and 0.42 g, respectively.
# (§5) The following strains were tested: • 1. L. lactis single strain isolated from Fresco 1000NG-10 (Chr. Hansen A/S, Denmark) • 2. S. thermophilus single strain isolated from Fresco 1000NG-10 (Chr. Hansen A/S, Denmark) • 3. L. innocua BL 86/26
# (§6) All strains were pre-grown to stationary phase cultures from −80° C. glycerol stocks in M17 broth with 1% (w/v) glucose, as standing cultures at 30° C. 1 mL of each culture was then washed twice with and resuspended in manganese-deficient CDM to remove residual manganese. 1 μL of each washed culture was then used to inoculate, in triplicate, a well of a 96-wells plate containing 200 μL CDM supplemented with 1% (w/v) glucose diluted from a 50% (w/v) stock solution dissolved in Milli-Q water, and in which manganese was left out, or added to a final concentration of 0.00006, 0.0006, 0.006, 0.06 or 0.6 mg L-1 manganese. Growth was followed by monitoring the absorbance at 600 nm at 30° C. in a Synergi H1 reader (BioTek, Winooski, VT, USA).
# [3] = test system: L. lactis single strain isolated from Fresco 1000NG-10; conditions: CDM, 0 to 0.6 ppm manganese, 30° C.
# Method: as §4, §5, §6
# [4] = test system: S. thermophilus single strain isolated from Fresco 1000NG-10; conditions: second Mn-free CDM, 0 to 0.6 ppm manganese, 30° C.
# Method: as §4, §5, §6
compound,measurement,setting,value
[Mn+2] [manganese],growth on depletion of manganese,[1],hardly inhibited
same,growth (absorbance at 600 nm),[2]; 0.0006 ppm manganese added to CDM,severely hampered
same,growth (absorbance at 600 nm),[2]; 0.006 ppm manganese added to CDM,some growth defects
same,growth (absorbance at 600 nm),[2]; 0.06 ppm manganese added to CDM,no growth defect
same,growth (absorbance at 600 nm),[2]; 0.6 ppm manganese added to CDM,no growth defect
same,manganese concentration below which inhibition of Listeria can be seen,[2]; CDM,below 0.006 ppm
same,manganese concentration that restored the growth of Listeria,[2]; CDM,above 0.006 ppm
same,time the inhibitory effect due to low manganese levels is maintained,[2]; low manganese levels in CDM,at least 20 hours
same,manganese required for growth to occur,L. innocua BL 86/26,more than 0.0006 ppm
same,growth on depletion of manganese,[3],minimally inhibited
same,growth on depletion of manganese,[4],minimally inhibited
